Measurements: PubChem BioAssay (NCI)
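Five compound concentrations were applied to cells in 96-well plates for 48 hours; endpoints were derived by simple linear interpolation of the resulting dose-response curve. GI50: concentration for 50% inhibition of growth. The concentration for full growth arrest is given as TGI.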

Assays:
Test in all cases: DTP human tumour cell line panel, 48 h; in the data active = GI50 below about 0.43 µM; inactive = the rest
NCI-H460 lung = test system: NCI-H460 lung
HCT-15 colon = test system: HCT-15 colon
NCI/ADR-RES ovarian = test system: NCI/ADR-RES ovarian
MCF7 breast = test system: MCF7 breast
A498 renal = test system: A498 renal
KM12 colon = test system: KM12 colon
UACC-257 melanoma = test system: UACC-257 melanoma
LOX IMVI melanoma = test system: LOX IMVI melanoma
UO-31 renal = test system: UO-31 renal
HOP-92 NSCLC = test system: HOP-92 NSCLC
M14 melanoma = test system: M14 melanoma
NCI-H226 lung = test system: NCI-H226 lung
OVCAR-8 ovarian = test system: OVCAR-8 ovarian
SW-620 colon = test system: SW-620 colon
HT29 colon = test system: HT29 colon
SNB-19 CNS = test system: SNB-19 CNS
T-47D breast = test system: T-47D breast
HCC-2998 colon = test system: HCC-2998 colon
SK-MEL-28 melanoma = test system: SK-MEL-28 melanoma
SN12C renal = test system: SN12C renal
HL-60(TB) leukemia = test system: HL-60(TB) leukemia
SF-268 CNS = test system: SF-268 CNS
OVCAR-5 ovarian = test system: OVCAR-5 ovarian
SK-MEL-5 melanoma = test system: SK-MEL-5 melanoma
SK-OV-3 ovarian = test system: SK-OV-3 ovarian
U251 CNS = test system: U251 CNS
PC-3 prostate = test system: PC-3 prostate
OVCAR-3 ovarian = test system: OVCAR-3 ovarian
ACHN renal = test system: ACHN renal
EKVX NSCLC = test system: EKVX NSCLC
IGROV1 ovarian = test system: IGROV1 ovarian
RXF 393 renal = test system: RXF 393 renal
UACC-62 melanoma = test system: UACC-62 melanoma
SF-295 CNS = test system: SF-295 CNS
CCRF-CEM leukemia = test system: CCRF-CEM leukemia
HOP-62 NSCLC = test system: HOP-62 NSCLC
DU-145 prostate = test system: DU-145 prostate
CAKI-1 renal = test system: CAKI-1 renal
OVCAR-4 ovarian = test system: OVCAR-4 ovarian
MDA-MB-231 breast = test system: MDA-MB-231 breast
RPMI-8226 leukemia = test system: RPMI-8226 leukemia
NCI-H522 lung = test system: NCI-H522 lung
MDA-MB-435 = test system: MDA-MB-435
MOLT-4 leukemia = test system: MOLT-4 leukemia
NCI-H23 lung = test system: NCI-H23 lung
A549 NSCLC = test system: A549 NSCLC
BT-549 breast = test system: BT-549 breast
TK-10 renal = test system: TK-10 renal
786-0 renal = test system: 786-0 renal
SNB-75 CNS = test system: SNB-75 CNS
HCT-116 colon = test system: HCT-116 colon
HS 578T breast = test system: HS 578T breast
COLO 205 colon = test system: COLO 205 colon
SF-539 CNS = test system: SF-539 CNS
SK-MEL-2 melanoma = test system: SK-MEL-2 melanoma
SR leukemia = test system: SR leukemia
K-562 leukemia = test system: K-562 leukemia
MALME-3M melanoma = test system: MALME-3M melanoma

COc1cc(OC)cc(C2C(C#N)=C(N)Oc3c2ccc2ccc(O)cc32)c1 (stereo not given)
6.08 µM: TGI (CAKI-1 renal)
12.8 µM: TGI (MOLT-4 leukemia)
9.97 µM: TGI (SK-MEL-28 melanoma) | TGI (A549 NSCLC)
5.14 µM: TGI (MDA-MB-231 breast)
11.6 µM: TGI (SNB-19 CNS)
inactive: GI50 (UACC-257 melanoma) 2.38 µM | GI50 (T-47D breast) 2.29 µM | GI50 (SK-MEL-28 melanoma) 2.27 µM | GI50 (UACC-62 melanoma) 1.41 µM | GI50 (TK-10 renal) 3.36 µM | GI50 (SK-MEL-2 melanoma) 0.587 µM
5.89 µM: TGI (SN12C renal)
5.25 µM: TGI (M14 melanoma)
2.95 µM: TGI (HOP-92 NSCLC)
active: GI50 (NCI-H460 lung) < 0.01 µM | GI50 (HCT-15 colon) < 0.01 µM | GI50 (NCI/ADR-RES ovarian) < 0.01 µM | GI50 (MCF7 breast) < 0.01 µM | GI50 (A498 renal) < 0.01 µM | GI50 (KM12 colon) < 0.01 µM | GI50 (LOX IMVI melanoma) < 0.01 µM | GI50 (UO-31 renal) < 0.0112 µM | GI50 (HOP-92 NSCLC) < 0.01 µM | GI50 (M14 melanoma) < 0.01 µM | GI50 (NCI-H226 lung) < 0.01 µM | GI50 (OVCAR-8 ovarian) < 0.01 µM | GI50 (SW-620 colon) < 0.01 µM | GI50 (HT29 colon) 0.088 µM | GI50 (SNB-19 CNS) < 0.01 µM | GI50 (HCC-2998 colon) < 0.0166 µM | GI50 (SN12C renal) < 0.01 µM | GI50 (HL-60(TB) leukemia) < 0.01 µM | GI50 (SF-268 CNS) < 0.01 µM | GI50 (OVCAR-5 ovarian) 0.0521 µM | GI50 (SK-MEL-5 melanoma) < 0.01 µM | GI50 (SK-OV-3 ovarian) < 0.01 µM | GI50 (U251 CNS) < 0.01 µM | GI50 (PC-3 prostate) < 0.01 µM | GI50 (OVCAR-3 ovarian) < 0.01 µM | GI50 (ACHN renal) < 0.01 µM | GI50 (EKVX NSCLC) < 0.01 µM | GI50 (IGROV1 ovarian) < 0.01 µM | GI50 (RXF 393 renal) < 0.01 µM | GI50 (SF-295 CNS) < 0.01 µM | GI50 (CCRF-CEM leukemia) < 0.01 µM | GI50 (HOP-62 NSCLC) < 0.01 µM | GI50 (DU-145 prostate) < 0.01 µM | GI50 (CAKI-1 renal) < 0.01 µM | GI50 (MDA-MB-231 breast) < 0.01 µM | GI50 (RPMI-8226 leukemia) < 0.01 µM | GI50 (NCI-H522 lung) < 0.01 µM | GI50 (MDA-MB-435) < 0.01 µM | GI50 (MOLT-4 leukemia) < 0.01 µM | GI50 (NCI-H23 lung) < 0.01 µM | GI50 (A549 NSCLC) < 0.01 µM | GI50 (BT-549 breast) < 0.01 µM | GI50 (786-0 renal) < 0.0125 µM | GI50 (SNB-75 CNS) < 0.01 µM | GI50 (HCT-116 colon) < 0.01 µM | GI50 (HS 578T breast) < 0.01 µM | GI50 (COLO 205 colon) 0.155 µM | GI50 (SF-539 CNS) < 0.01 µM | GI50 (SR leukemia) < 0.01 µM | GI50 (K-562 leukemia) < 0.01 µM
15.6 µM: TGI (OVCAR-4 ovarian)
1.63 µM: TGI (LOX IMVI melanoma)
2.67 µM: TGI (SF-295 CNS)
1.93 µM: TGI (HCT-15 colon)
6.87 µM: TGI (SF-268 CNS)
27.1 µM: TGI (SR leukemia)
5.75 µM: TGI (HOP-62 NSCLC)
14.4 µM: TGI (SW-620 colon)
1.03 µM: TGI (COLO 205 colon)
3.28 µM: TGI (RPMI-8226 leukemia)
11.3 µM: TGI (MCF7 breast)
0.53 µM: TGI (HCC-2998 colon)
4.42 µM: TGI (UACC-62 melanoma)
19.6 µM: TGI (TK-10 renal)
11.5 µM: TGI (BT-549 breast)
1.89 µM: TGI (U251 CNS)
4.49 µM: TGI (RXF 393 renal)
2.64 µM: TGI (A498 renal)
< 0.01 µM: TGI (HL-60(TB) leukemia) | TGI (SK-MEL-5 melanoma) | TGI (OVCAR-3 ovarian) | TGI (MDA-MB-435) | TGI (SF-539 CNS)
> 31.7 µM: TGI (K-562 leukemia)
6.58 µM: TGI (ACHN renal)
1.13 µM: TGI (NCI-H460 lung)
1.34 µM: TGI (KM12 colon)
8.29 µM: TGI (OVCAR-8 ovarian)
32.5 µM: TGI (UACC-257 melanoma)
7.37 µM: TGI (SK-MEL-2 melanoma)
6.54 µM: TGI (SNB-75 CNS)
5.83 µM: TGI (HT29 colon)
9.95 µM: TGI (HS 578T breast)
4.74 µM: TGI (NCI-H23 lung)
22.8 µM: TGI (T-47D breast)
3.88 µM: TGI (HCT-116 colon)
13.9 µM: TGI (PC-3 prostate)
9.23 µM: TGI (786-0 renal)
3.84 µM: TGI (DU-145 prostate)
6.61 µM: TGI (IGROV1 ovarian)
12 µM: TGI (OVCAR-5 ovarian)
11.4 µM: TGI (SK-OV-3 ovarian)
14 µM: TGI (CCRF-CEM leukemia)
6.66 µM: TGI (EKVX NSCLC)
6.62 µM: TGI (UO-31 renal)

O=c1n(-c2ccccc2)c(=O)n2n1C1C=CC2CCCCCC1
> 100 µM: TGI (NCI-H460 lung) | TGI (HCT-15 colon) | TGI (NCI/ADR-RES ovarian) | TGI (MCF7 breast) | TGI (KM12 colon) | TGI (UACC-257 melanoma) | TGI (LOX IMVI melanoma) | TGI (UO-31 renal) | TGI (HOP-92 NSCLC) | TGI (M14 melanoma) | TGI (NCI-H226 lung) | TGI (OVCAR-8 ovarian) | TGI (SW-620 colon) | TGI (HT29 colon) | TGI (SNB-19 CNS) | TGI (T-47D breast) | TGI (HCC-2998 colon) | TGI (SK-MEL-28 melanoma) | TGI (SN12C renal) | TGI (HL-60(TB) leukemia) | TGI (SF-268 CNS) | TGI (OVCAR-5 ovarian) | TGI (SK-MEL-5 melanoma) | TGI (SK-OV-3 ovarian) | TGI (U251 CNS) | TGI (PC-3 prostate) | TGI (MALME-3M melanoma) | TGI (OVCAR-3 ovarian) | TGI (ACHN renal) | TGI (EKVX NSCLC) | TGI (IGROV1 ovarian) | TGI (UACC-62 melanoma) | TGI (SF-295 CNS) | TGI (CCRF-CEM leukemia) | TGI (HOP-62 NSCLC) | TGI (DU-145 prostate) | TGI (CAKI-1 renal) | TGI (OVCAR-4 ovarian) | TGI (MDA-MB-231 breast) | TGI (RPMI-8226 leukemia) | TGI (NCI-H522 lung) | TGI (MDA-MB-435) | TGI (MOLT-4 leukemia) | TGI (NCI-H23 lung) | TGI (A549 NSCLC) | TGI (BT-549 breast) | TGI (TK-10 renal) | TGI (786-0 renal) | TGI (SNB-75 CNS) | TGI (HCT-116 colon) | TGI (HS 578T breast) | TGI (COLO 205 colon) | TGI (SF-539 CNS) | TGI (SK-MEL-2 melanoma) | TGI (SR leukemia)
